Test: Calcium binding: titration with calcium chloride solution using a calcium-ion-selective electrode; binding constant calculated by the method of Tanford
Method: The calcium binding properties of the polymers were measured by titration of the samples with a calcium chloride solution using a calcium-ion-selective electrode of the type Radiometer (Trade Mark) F2112Ca. The calcium binding constant pKCa2+ was calculated by the method of C Tanford in Chapter 8, Multiple Equilibria, Physical Chemistry of Macromolecules, John Wiley, New York, 1961.
Values of pKCa2+ of 4.0 or above represent materials likely to be useful as detergency builders, either alone or in conjunction with other builder materials. The value for sodium tripolyphosphate is 6.0, and any figure higher than this indicates excellent building.

- pKCa2+: 6.0
SMILES: O=P(O)(O)OP(=O)(O)OP(=O)(O)O [sodium tripolyphosphate]

From patent EP0641363B1, “DETERGENT COMPOSITIONS CONTAINING COPOLYMERS” (UNILEVER PLC, priority 1992, dated 1993)
